From PubChem BioAssay (NCI)
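Assay format: 96-well plates, 48-hour exposure. TGI is the concentration that stops growth completely.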

How the values were obtained:
Assay in all cases: NCI tumour cell line growth inhibition, 48 h
786-0 renal = system: 786-0 renal
A498 renal = system: A498 renal
A549 NSCLC = system: A549 NSCLC
ACHN renal = system: ACHN renal
BT-549 breast = system: BT-549 breast
CCRF-CEM leukemia = system: CCRF-CEM leukemia
COLO 205 colon = system: COLO 205 colon
DU-145 prostate = system: DU-145 prostate
EKVX NSCLC = system: EKVX NSCLC
HCC-2998 colon = system: HCC-2998 colon
HCT-116 colon = system: HCT-116 colon
HCT-15 colon = system: HCT-15 colon
HL-60(TB) leukemia = system: HL-60(TB) leukemia
HOP-62 NSCLC = system: HOP-62 NSCLC
HOP-92 NSCLC = system: HOP-92 NSCLC
HS 578T breast = system: HS 578T breast
HT29 colon = system: HT29 colon
IGROV1 ovarian = system: IGROV1 ovarian
K-562 leukemia = system: K-562 leukemia
KM12 colon = system: KM12 colon
LOX IMVI melanoma = system: LOX IMVI melanoma
M14 melanoma = system: M14 melanoma
MCF7 breast = system: MCF7 breast
MDA-MB-231 breast = system: MDA-MB-231 breast
MDA-MB-435 = system: MDA-MB-435
MDA-N = system: MDA-N
MOLT-4 leukemia = system: MOLT-4 leukemia
NCI-H226 lung = system: NCI-H226 lung
NCI-H23 lung = system: NCI-H23 lung
NCI-H460 lung = system: NCI-H460 lung
NCI-H522 lung = system: NCI-H522 lung
NCI/ADR-RES ovarian = system: NCI/ADR-RES ovarian
OVCAR-3 ovarian = system: OVCAR-3 ovarian
OVCAR-8 ovarian = system: OVCAR-8 ovarian
PC-3 prostate = system: PC-3 prostate
RPMI-8226 leukemia = system: RPMI-8226 leukemia
RXF 393 renal = system: RXF 393 renal
SF-268 CNS = system: SF-268 CNS
SF-295 CNS = system: SF-295 CNS
SK-MEL-2 melanoma = system: SK-MEL-2 melanoma
SK-MEL-28 melanoma = system: SK-MEL-28 melanoma
SK-MEL-5 melanoma = system: SK-MEL-5 melanoma
SK-OV-3 ovarian = system: SK-OV-3 ovarian
SN12C renal = system: SN12C renal
SNB-19 CNS = system: SNB-19 CNS
SR leukemia = system: SR leukemia
SW-620 colon = system: SW-620 colon
T-47D breast = system: T-47D breast
TK-10 renal = system: TK-10 renal
U251 CNS = system: U251 CNS
UACC-257 melanoma = system: UACC-257 melanoma
UACC-62 melanoma = system: UACC-62 melanoma
UO-31 renal = system: UO-31 renal
CAKI-1 renal = system: CAKI-1 renal
OVCAR-4 ovarian = system: OVCAR-4 ovarian
OVCAR-5 ovarian = system: OVCAR-5 ovarian
SF-539 CNS = system: SF-539 CNS
SNB-75 CNS = system: SNB-75 CNS

For Cc1nc(-c2cc3cc(Cl)ccc3oc2=O)cc2c1c(=O)oc1ccc(Cl)cc12, the TGI (786-0 renal) was > 100 µM, the TGI (A498 renal) was > 100 µM and the TGI (A549 NSCLC) was > 100 µM. For the same compound, the TGI (ACHN renal) was > 100 µM, the TGI (BT-549 breast) was > 100 µM and the TGI (CCRF-CEM leukemia) was > 100 µM. For the same compound, the TGI (COLO 205 colon) was > 100 µM, the TGI (DU-145 prostate) was > 100 µM and the TGI (EKVX NSCLC) was > 100 µM. For the same compound, the TGI (HCC-2998 colon) was > 100 µM, the TGI (HCT-116 colon) was > 100 µM and the TGI (HCT-15 colon) was > 100 µM. For the same compound, the TGI (HL-60(TB) leukemia) was > 100 µM, the TGI (HOP-62 NSCLC) was > 100 µM and the TGI (HOP-92 NSCLC) was > 100 µM. The TGI (HS 578T breast) was > 100 µM, the TGI (HT29 colon) was > 100 µM and the TGI (IGROV1 ovarian) was > 100 µM. The TGI (K-562 leukemia) was > 100 µM, the TGI (KM12 colon) was > 100 µM and the TGI (LOX IMVI melanoma) was > 100 µM. For the same compound, the TGI (M14 melanoma) was > 100 µM, the TGI (MCF7 breast) was > 100 µM and the TGI (MDA-MB-231 breast) was > 100 µM. For the same compound, the TGI (MDA-MB-435) was > 100 µM, the TGI (MDA-N) was > 100 µM and the TGI (MOLT-4 leukemia) was > 100 µM. The TGI (NCI-H226 lung) was > 100 µM, the TGI (NCI-H23 lung) was > 100 µM and the TGI (NCI-H460 lung) was > 100 µM. The TGI (NCI-H522 lung) was > 100 µM, the TGI (NCI/ADR-RES ovarian) was > 100 µM and the TGI (OVCAR-3 ovarian) was > 100 µM. The TGI (OVCAR-8 ovarian) was > 100 µM, the TGI (PC-3 prostate) was > 100 µM and the TGI (RPMI-8226 leukemia) was > 100 µM. The TGI (RXF 393 renal) was > 100 µM, the TGI (SF-268 CNS) was > 100 µM and the TGI (SF-295 CNS) was > 100 µM. The TGI (SK-MEL-2 melanoma) was > 100 µM, the TGI (SK-MEL-28 melanoma) was > 100 µM and the TGI (SK-MEL-5 melanoma) was > 100 µM. For the same compound, the TGI (SK-OV-3 ovarian) was > 100 µM, the TGI (SN12C renal) was > 100 µM and the TGI (SNB-19 CNS) was > 100 µM. The TGI (SR leukemia) was > 100 µM, the TGI (SW-620 colon) was > 100 µM and the TGI (T-47D breast) was > 100 µM. The TGI (TK-10 renal) was > 100 µM, the TGI (U251 CNS) was > 100 µM and the TGI (UACC-257 melanoma) was > 100 µM. The TGI (UACC-62 melanoma) was > 100 µM and the TGI (UO-31 renal) was > 100 µM.
CN(C)c1ccc(/C=C2\N=C(c3ccccc3)N(c3ccc4c(c3)Sc3cc(N5C(=O)/C(=C/c6ccc(N(C)C)cc6)N=C5c5ccccc5)ccc3N4)C2=O)cc1 gave a TGI (786-0 renal) of 45.6 µM, a TGI (A498 renal) of 31.8 µM and a TGI (A549 NSCLC) of 52.2 µM. For the same compound, the TGI (ACHN renal) was 30.4 µM, the TGI (BT-549 breast) was 66.6 µM and the TGI (CAKI-1 renal) was 37.4 µM. For the same compound, the TGI (CCRF-CEM leukemia) was 20.1 µM, the TGI (COLO 205 colon) was > 100 µM and the TGI (DU-145 prostate) was 76.1 µM. It also gave a TGI (EKVX NSCLC) of 74.8 µM, a TGI (HCC-2998 colon) of 37.9 µM and a TGI (HCT-116 colon) of 67.6 µM. For the same compound, the TGI (HCT-15 colon) was > 100 µM, the TGI (HL-60(TB) leukemia) was 61.9 µM and the TGI (HOP-62 NSCLC) was 32.1 µM. For the same compound, the TGI (HOP-92 NSCLC) was 35.1 µM, the TGI (HS 578T breast) was 72.7 µM and the TGI (HT29 colon) was > 100 µM. The TGI (IGROV1 ovarian) was 32 µM, the TGI (K-562 leukemia) was 96.4 µM and the TGI (KM12 colon) was > 100 µM. It also gave a TGI (LOX IMVI melanoma) of 40.9 µM, a TGI (M14 melanoma) of 40.7 µM and a TGI (MCF7 breast) of 32.4 µM. The TGI (MDA-MB-231 breast) was 41.5 µM, the TGI (MDA-MB-435) was 58 µM and the TGI (MDA-N) was > 100 µM. The TGI (MOLT-4 leukemia) was > 100 µM, the TGI (NCI-H460 lung) was 62.3 µM and the TGI (NCI/ADR-RES ovarian) was 89.2 µM. The TGI (OVCAR-3 ovarian) was 25.8 µM, the TGI (OVCAR-4 ovarian) was 61 µM and the TGI (OVCAR-5 ovarian) was 40.8 µM. It also gave a TGI (OVCAR-8 ovarian) of 34.4 µM, a TGI (PC-3 prostate) of 34.4 µM and a TGI (RPMI-8226 leukemia) of 51.4 µM. For the same compound, the TGI (SF-268 CNS) was 37.3 µM, the TGI (SF-295 CNS) was 36 µM and the TGI (SF-539 CNS) was 32.8 µM. For the same compound, the TGI (SK-MEL-2 melanoma) was 38.3 µM, the TGI (SK-MEL-28 melanoma) was > 100 µM and the TGI (SK-MEL-5 melanoma) was 32.1 µM. It also gave a TGI (SK-OV-3 ovarian) of 26.7 µM, a TGI (SN12C renal) of 38.9 µM and a TGI (SNB-19 CNS) of 31.3 µM. For the same compound, the TGI (SNB-75 CNS) was 27.4 µM, the TGI (SR leukemia) was > 100 µM and the TGI (SW-620 colon) was > 100 µM. For the same compound, the TGI (T-47D breast) was 48 µM, the TGI (TK-10 renal) was 31.1 µM and the TGI (U251 CNS) was 29 µM. For the same compound, the TGI (UACC-257 melanoma) was 38.2 µM, the TGI (UACC-62 melanoma) was 33.7 µM and the TGI (UO-31 renal) was 34.8 µM.
